Data published in US20260354380A1, “PYRAZOLO PESTICIDAL COMPOUNDS” (BASF SE, priority 2022, published 2026).

What was measured:
Assay type in all cases: in vivo
Anthonomus grandis = test: Action on Boll Weevil (Anthonomus grandis); conditions: 800 ppm; egg and larval mortality; 5 days
Procedure: Example B3: Action on Boll Weevil (Anthonomus grandis)
For evaluating control of boll weevil (Anthonomus grandis) the test unit consisted of 96-well-microtiter plates containing an insect diet and 5-10 A. grandis eggs.
The compounds were formulated using a solution containing 75% (v/v) water and 25% (v/v) DMSO. Different concentrations of formulated compounds were sprayed onto the insect diet at 5 μl, using a custom-built micro atomizer, at two replications.
After application, microtiter plates were incubated at about 25±1 °C and about 75±5% relative humidity for 5 days. Egg and larval mortality were then visually assessed.

Aedes aegypti = test: whole plant or invertebrate; conditions: 800 ppm; larvae; 2 days
Procedure: Example B1: Action on Yellow Fever Mosquito (Aedes aegypti)
For evaluating control of yellow fever mosquito (Aedes aegypti) the test unit consisted of 96-well-microtiter plates containing 200 μl of tap water per well and 5-15 freshly hatched A. aegypti larvae.
The active compounds or mixtures were formulated using a solution containing 75% (v/V) water and 25% (v/v) DMSO. Different concentrations of formulated compounds or mixtures were sprayed onto the insect diet at 2.5 μl, using a custom-built micro atomizer, at two replications. For experimental mixtures in these tests identical volumes of both mixing partners at the desired concentrations respectively, were mixed together.
After application, microtiter plates were incubated at 28±1 °C, 80±5% RH for 2 days. Larval mortality was then visually assessed.

Plutella xylostella [1] = test: Action on Diamond Back Moth (Plutella xylostella), cabbage leaf dip, 3rd instar larvae; conditions: 300 ppm; 3rd instar larvae; 72 hours after treatment
Procedure: Example B6: Action on Diamond Back Moth (Plutella xylostella)
The active compound is dissolved at the desired concentration in a mixture of 1:1 (v/v) distilled water:acetone. Surfactant (Kinetic® HV) is added at a rate of 0.01% (v/v). The test solution is prepared at the day of use.
Leaves of cabbage were dipped in test solution and air-dried. Treated leaves were placed in petri dishes lined with moist filter paper and inoculated with ten 3rd instar larvae. Mortality was recorded 72 hours after treatment. Feeding damages were also recorded using a scale of 0-100%.
(§1) Compounds disclosed in the document WO2021013561 were prepared according to procedures described therein and their pesticidal activities were determined by procedure analogues to the procedures as described above in examples B6 and B7.

Spodoptera eridania = test: Action on Southern Armyworm (Spodoptera eridania), 2nd Instar Larvae; conditions: 300 ppm; 2nd instar larvae; 4 days after treatment
Procedure: Example B7: Action on Southern Armyworm (Spodoptera eridania), 2nd Instar Larvae
The active compounds were formulated by a Tecan liquid handler in 100% cyclohexanone as a 10,000 ppm solution supplied in tubes. The 10,000 ppm solution was serially diluted in 100% cyclohexanone to make interim solutions. These served as stock solutions for which final dilutions were made by the Tecan in 50% acetone: 50% water (v/v) into 10 or 20 ml glass vials. A nonionic surfactant (Kinetic®) was included in the solution at a volume of 0.01% (v/v). The vials were then inserted into an automated electrostatic sprayer equipped with an atomizing nozzle for application to plants/insects.
Lima bean plants (variety Sieva) were grown 2 plants to a pot and selected for treatment at the 1st true leaf stage. Test solutions were sprayed onto the foliage by an automated electrostatic plant sprayer equipped with an atomizing spray nozzle. The plants were dried in the sprayer fume hood and then removed from the sprayer. Each pot was placed into perforated plastic bags with a zip closure. About 10 to 11 armyworm larvae were placed into the bag and the bags zipped closed. Test plants were maintained in a growth room at about 25 °C and about 20-40% relative humidity for 4 days, avoiding direct exposure to fluorescent light (24 hour photoperiod) to prevent trapping of heat inside the bags. Mortality and reduced feeding were assessed 4 days after treatment, compared to untreated control plants.
as §1

Heliothis virescens = test: Action on Tobacco Budworm (Heliothis virescens); conditions: 800 ppm; egg and larval mortality; 5 days
Procedure: Example B5: Action on Tobacco Budworm (Heliothis virescens)
For evaluating control of tobacco budworm (Heliothis virescens) the test unit consisted of 96-well-microtiter plates containing an insect diet and 15-25 H. virescens eggs.
The compounds were formulated using a solution containing 75% v/v water and 25% v/v DMSO. Different concentrations of formulated compounds were sprayed onto the insect diet at 10 μl, using a custom-built micro atomizer, at two replications.
After application, microtiter plates were incubated at about 28±1 °C and about 80±5% relative humidity for 5 days. Egg and larval mortality were then visually assessed.

Plutella xylostella [2] = test: Action on Diamond Back Moth (Plutella xylostella), microtiter plates, insect diet, eggs; conditions: 800 ppm; egg and larval mortality; 5 days
Procedure: Example B8: Action on Diamond Back Moth (Plutella xylostella)
For evaluating control of diamond back moth (Plutella xylostella) the test unit consisted of 96-well-microtiter plates containing an insect diet and 15-25 P. xylostella eggs. The compounds or mixtures were formulated using a solution containing 75% water and 25% DMSO. Different concentrations of formulated compounds or mixtures were sprayed onto the insect diet at 5 μl, using a custom-built micro atomizer, at two replications. For experimental mixtures in these tests identical volumes of both mixing partners at the desired concentrations respectively, were mixed together. After application, microtiter plates were incubated at 28±1 °C, 80±5% RH for 5 days. Egg and larval mortality was then visually assessed.

Structure (SMILES) | mortality in comparison with untreated controls (Anthonomus grandis) | mortality in comparison with untreated controls (Aedes aegypti) | mortality in comparison with untreated controls (Plutella xylostella [1]) | mortality in comparison with untreated controls (Spodoptera eridania) | mortality in comparison with untreated controls (Heliothis virescens) | mortality in comparison with untreated controls (Plutella xylostella [2])
Cc1ccc(C(C)C)c(N2C(=O)CS/C2=N\C(=O)Nc2ccc(-n3cc(NC(=O)c4ccc(C(C)(F)F)cc4)c(C)n3)cc2)c1 [Example C-36] | at least 75% | at least 50% | at least 75% | at least 75% | at least 75% | 
Cc1ccc(C(C)C)c(N2C(=O)CSC2=NC(=O)Nc2ccc(-n3cc(NC(=O)c4csc(Cl)c4)c(C)n3)cc2)c1 [Example C-39] | at least 75% | at least 50% | at least 75% | at least 75% | at least 75% | 
Cc1ccc(C(C)C)c(N2C(=O)CSC2=NC(=O)Nc2ccc(-n3cc(NC(=O)c4cc(Cl)cs4)c(C)n3)cc2)c1 [Example C-40] | at least 75% | at least 50% | at least 75% | at least 75% | at least 75% | 
Cc1ccc(C(C)C)c(N2C(=O)CSC2=NC(=O)Nc2ccc(-n3cc(NC(=O)c4nc(Cl)cs4)c(C)n3)cc2)c1 [Example C-42] | at least 75% | at least 50% | at least 75% | at least 75% | at least 75% | 
Cc1ccc(C(C)C)c(N2C(=O)CSC2=NC(=O)Nc2ccc(-n3cc(NC(=O)c4csc(Cl)n4)c(C)n3)cc2)c1 [Example C-43] | at least 75% | at least 50% | at least 75% | at least 75% | at least 75% | 
Cc1ccc(C(=O)Nc2cn(-c3ccc(NC(=O)N=C4SCC(=O)N4c4cc(C)ccc4C(C)C)cc3)nc2C)cc1 [Example C-49] | at least 75% | at least 50% | at least 75% | at least 75% | at least 75% | 
Cc1ccc(C(C)C)c(N2C(=O)CSC2=NC(=O)Nc2ccc(-n3cc(NC(=O)c4ccc(S(C)(=O)=O)cc4)c(C)n3)cc2)c1 [Example C-53] |  |  |  |  |  | at least 75%
Cc1ccc(C(C)C)c(N2C(=O)CSC2=NC(=O)Nc2ccc(-n3cc(NC(=O)c4ccncc4)c(C)n3)cc2)c1 [Example C-59] | at least 75% | at least 50% | at least 75% | at least 75% | at least 75% | 
CNC(=O)c1ccc(C(=O)Nc2cn(-c3ccc(NC(=O)N=C4SCC(=O)N4c4cc(C)ccc4C(C)C)cc3)nc2C)cn1 [Example C-60] |  |  |  |  |  | at least 75%
Cc1ccc(C(C)C)c(N2C(=O)CSC2=NC(=O)Nc2ccc(-n3cc(NC(=O)c4ccc(I)cc4)c(C)n3)cc2)c1 [Example C-71] | at least 75% | at least 50% | at least 75% | at least 75% | at least 75% | 
Cc1ccc(C(C)C)c(N2C(=O)CSC2=NC(=O)Nc2ccc(-n3cc(NC(=O)c4ccc(C(C)(C)C)cc4)c(C)n3)cc2)c1 [Example C-73] |  |  |  |  |  | at least 75%
Cc1ccc(C(C)C)c(N2C(=O)CSC2=NC(=O)Nc2ccc(-n3cc(NC(=O)c4ccc(S(=O)(=O)C(F)(F)F)cc4)c(C)n3)cc2)c1 [Example C-79] | at least 75% | at least 50% | at least 75% | at least 75% | at least 75% | 
Cc1ccc(C(C)C)c(N2C(=O)CSC2=NC(=O)Nc2ccc(-n3cc(NC(=O)c4ccc(C(F)F)cc4)c(C)n3)cc2)c1 [Example C-82] | at least 75% | at least 50% | at least 75% | at least 75% | at least 75% | 
Cc1ccc(C(C)C)c(N2C(=O)CSC2=NC(=O)Nc2ccc(-n3cc(NC(=O)c4ccc(C5(F)CC5)cc4)c(C)n3)cc2)c1 [Example C-88] | at least 75% | at least 50% | at least 75% | at least 75% | at least 75% | 
Cc1csc(C(=O)Nc2cn(-c3ccc(NC(=O)/N=C4\SCC(=O)N4c4cc(C)ccc4C(C)C)cc3)nc2C)c1 [Example C-93] | at least 75% | at least 50% | at least 75% | at least 75% | at least 75% | 
Cc1ccc(C(C)C)c(N2C(=O)CS/C2=N\C(=O)Nc2ccc(-n3cc(NC(=O)c4ccc(C)s4)c(C)n3)cc2)c1 [Example C-94] | at least 75% | at least 50% | at least 75% | at least 75% | at least 75% | 
Cc1ccc(C(C)C)c(N2C(=O)CS/C2=N\C(=O)Nc2ccc(-n3cc(NC(=O)c4cccs4)c(C)n3)cc2)c1 [Example C-95] | at least 75% | at least 50% | at least 75% | at least 75% | at least 75% | 
Cc1ccc(C(C)C)c(N2C(=O)CS/C2=N\C(=O)Nc2ccc(-n3nc(C)c(NC(=O)c4ccc(OC(F)(F)F)cc4)c3C)cc2C2CC2)c1 [Example C-96] | at least 75% | at least 50% | at least 75% | at least 75% | at least 75% | 
